Assay results as given in patent US6358883B1, “Pesticidal and parasiticidal use of 1-aryl-1-(substituted thio, sulfinyl and sulfonyl)-2-nitroethane compounds” (American Cyanamid Company, priority 1998, dated 2002).
Where two headings read alike, the source gives them in different places.

Key:
[1] = test system: M. incognita (Root Knot Nematode) larvae; test: Evaluation of test compounds against M. incognita larvae in microtiter plate wells (movement score); type: in vivo; settings: larvae scored for movement after 20-24 hours; further: key: A score of '9' indicates inactive worms with a straight, sticklike morphology; A score of '8' indicates inactive worms with a limp, curled or curved morphology; A score of '7' indicates dead/paralyzed worms after 72 hours
Procedure, shortened: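 Scoring is by larval movement: dead or paralyzed worms count as positive, and a "7" means dead/paralyzed at 72 hours. Freshly hatched root-knot larvae (50-65 per well) in buffered S Medium were incubated with compounds under plate sealers for 20-24 h before the first read.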

[2] = test system: C. elegans (Bristol strain); test: Evaluation of test compounds against C. elegans (motility, 96-well plate); type: in vivo; design: key: 9=complete kill in 4 hours; 8=complete kill in 24 hours; 7=markedly reduced motility in approximately 95% of worms in 24 hours; 0=normal motility, same as controls; settings: motility at 4 and 24 hours
Procedure, shortened: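 Activity is a semi-quantitative visual score of adult and larval movement, read at 4 h and 24 h post-immersion at 20 °C after gentle tapping. Worms were suspended in Na buffer in wells where compound, dissolved in 80% acetone, had been evaporated.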

[3] = test system: Root-knot nematode, Meloidogyne incognita J2 larvae; settings: potted tomato, scored 4 weeks following inoculation
From the text: Soil Nematicide Assay Targeting Root-knot Nematode, Meloidogyne Incognita on Potted Tomato
The test compound is solubilized in acetone and diluted with water to the required test concentration. Silty loam soil in a 3 inch pot with a 3-week-old tomato transplant is drenched with the test solution. Four thousand root-knot nematode Meloidogyne incognita J2 larvae are dispensed in a aqueous suspension onto the soil. The pots are kept in the greenhouse and 4 weeks following inoculation of the pots, plant roots are washed free of soil and scored for the degree of root galling using the root-knot galling index identified below.

[4] = test system: Spodoptera eridania, eggs-southern armyworm (SAW-Eggs); test: Southern armyworm eggs (SAW-Eggs) treated diet test; type: in vivo; design: key: 0 = no effect; 1 = 10-25% kill; 2 = 26-35% kill; 3 = 36-45% kill; 4 = 46-55% kill; 5 = 56-65% kill; 6 = 66-75% kill; 7 = 76-85% kill; 8 = 86-99% kill; 9 = 100% kill; settings: mortality after 7 days
Procedure, shortened: (§1)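 Eggs of S. eridania or D. undecimpunctata howardi were set on artificial diet pretreated with test solution (10,000 ppm stock in 35% aqueous acetone, water dilutions) and dried. Wells were sealed with vented clear covers, and mortality was scored at day 7.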

[5] = test system: Diabrotica undecimpunctata howardi, eggs-southern corn rootworm (SCR-Eggs); test: Southern corn rootworm eggs (SCR-Eggs) treated diet test; type: in vivo; design: key: 0 = no effect; 1 = 10-25% kill; 2 = 26-35% kill; 3 = 36-45% kill; 4 = 46-55% kill; 5 = 56-65% kill; 6 = 66-75% kill; 7 = 76-85% kill; 8 = 86-99% kill; 9 = 100% kill; settings: mortality after 7 days
Procedure, shortened: as §1

[6] = test system: Diabrotica virgifera virgifera Leconte, 2nd instar western corn rootworm (WCR); test: Western corn rootworm (WCR) soil test; type: in vivo; design: key: 0 = no effect; 1 = 10-25% kill; 2 = 26-35% kill; 3 = 36-45% kill; 4 = 46-55% kill; 5 = 56-65% kill; 6 = 66-75% kill; 7 = 76-85% kill; 8 = 86-99% kill; 9 = 100% kill
Procedure, shortened: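 Ten 2nd-instar rootworm larvae are placed in jars of moist soil with millet seed and talc treated with 1.25 mg active ingredient (roughly 50 kg/ha) from a 35% acetone-in-water solution. After 5 days mortality is scored, counting missing larvae as dead.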

[7] = test system: Tetranychus urticae (OP-resistant strain), 2-spotted spider mite (TSM); test: 2-spotted spider mite (TSM) plant dip test; type: in vivo; design: key: 0 = no effect; 1 = 10-25% kill; 2 = 26-35% kill; 3 = 36-45% kill; 4 = 46-55% kill; 5 = 56-65% kill; 6 = 66-75% kill; 7 = 76-85% kill; 8 = 86-99% kill; 9 = 100% kill; settings: mortality after 2 days
Procedure, shortened: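 Mortality counted 2 days after a 3 s agitated dip of infested Sieva lima bean plants. Compound came from a 10,000 ppm stock in 35% aqueous acetone, with further dilution in water. Each primary leaf carried about 100 OP-resistant mites, allowed to settle ~2 h before dipping.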

[8] = test system: Aphis gossypii, cotton aphid (CA); test: Cotton aphid (CA) cotyledon dip test; type: in vivo; design: key: 0 = no effect; 1 = 10-25% kill; 2 = 26-35% kill; 3 = 36-45% kill; 4 = 46-55% kill; 5 = 56-65% kill; 6 = 66-75% kill; 7 = 76-85% kill; 8 = 86-99% kill; 9 = 100% kill; settings: mortality after 5 days
Procedure, shortened: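 Mortality was scored 5 days after dipping aphid-infested cotyledons, colonised overnight from a transfer leaf, into water dilutions of a 35% acetone/water compound solution.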

[9] = test system: Spodoptera eridania, 2nd instar larvae, southern armyworm (SAW); test: Southern armyworm (SAW) leaf dip test; type: in vivo; design: key: 0 = no effect; 1 = 10-25% kill; 2 = 26-35% kill; 3 = 36-45% kill; 4 = 46-55% kill; 5 = 56-65% kill; 6 = 66-75% kill; 7 = 76-85% kill; 8 = 86-99% kill; 9 = 100% kill
Procedure, shortened: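 Ten 2nd instar caterpillars feed on a Sieva lima bean leaf that was dipped 3 seconds in test solution (stock 10,000 ppm in 35% acetone/water, water-diluted). Five days later, larvae are assessed for death, feeding reduction or abnormal molting.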

O=C(O)CSC(C[N+](=O)[O-])c1ccccc1 (stereo not drawn) [Example 1, {[alpha-(nitromethyl)benzyl]thio}-acetic acid]
M. incognita (150 ppm) score [1]: 9 | Rating Against C. elegans (150 ppm) [2]: 9 | Galling Index ([3]; Rate 10 ppm soil drench): 1 (10) | Galling Index ([3]; Rate 25 ppm soil drench): 0 (0) | Galling Index ([3]; Rate 50 ppm soil drench): 0 (0) | SAW Eggs (300 ppm) rating [4]: 0 | SCR Eggs (1000 ppm) rating [5]: 0

CCCCOC(=O)CSC(C[N+](=O)[O-])c1c(Cl)cccc1Cl (centres unmarked) [Example 134]
WCR (50 ppm) rating [6]: 0 | M. incognita (150 ppm) score [1]: 0 | TSM (300 ppm) rating [7]: 0 | CA (300 ppm) rating [8]: 0 | SAW (300 ppm) rating [9]: 0 | Rating Against C. elegans (150 ppm) [2]: 0 | SAW Eggs (300 ppm) rating [4]: 0 | SCR Eggs (1000 ppm) rating [5]: 0

O=C(CSC(C[N+](=O)[O-])c1cccnc1)OCc1ccccc1 (centres unmarked) [Example 174]
WCR (50 ppm) rating [6]: 0 | M. incognita (150 ppm) score [1]: 9 | TSM (300 ppm) rating [7]: 0 | CA (300 ppm) rating [8]: 0 | SAW (300 ppm) rating [9]: 0 | Rating Against C. elegans (150 ppm) [2]: 0 | SAW Eggs (300 ppm) rating [4]: 0 | SCR Eggs (1000 ppm) rating [5]: 0

CCCCOC(=O)CSC(C[N+](=O)[O-])c1cccc(C#N)c1 (racemic) [Example 101]
WCR (50 ppm) rating [6]: 0 | M. incognita (150 ppm) score [1]: 9 | TSM (300 ppm) rating [7]: 0 | CA (300 ppm) rating [8]: 0 | SAW (300 ppm) rating [9]: 0 | Rating Against C. elegans (150 ppm) [2]: 0 | SAW Eggs (300 ppm) rating [4]: 0 | SCR Eggs (1000 ppm) rating [5]: 0

O=C(O)CSC(C[N+](=O)[O-])c1cccc([N+](=O)[O-])c1 (centres unmarked) [Example 128]
WCR (50 ppm) rating [6]: 0 | M. incognita (150 ppm) score [1]: 9 | TSM (300 ppm) rating [7]: 0 | CA (300 ppm) rating [8]: 0 | SAW (300 ppm) rating [9]: 0 | Rating Against C. elegans (150 ppm) [2]: 9 | SAW Eggs (300 ppm) rating [4]: 0 | SCR Eggs (1000 ppm) rating [5]: 0

O=C(CSC(C[N+](=O)[O-])c1ccc2ccccc2c1)OCc1ccccc1 (racemic) [Example 114]
WCR (50 ppm) rating [6]: 0 | M. incognita (150 ppm) score [1]: 0 | TSM (300 ppm) rating [7]: 3 (3 = 36-45% kill) | CA (300 ppm) rating [8]: 0 | SAW (300 ppm) rating [9]: 0 | Rating Against C. elegans (150 ppm) [2]: 9 | SAW Eggs (300 ppm) rating [4]: 9 (9 = 100% kill) | SCR Eggs (1000 ppm) rating [5]: 0

C=CCSC(C[N+](=O)[O-])c1cccnc1 (centres unmarked) [Example 176]
WCR (50 ppm) rating [6]: 0 | M. incognita (150 ppm) score [1]: 9 | TSM (300 ppm) rating [7]: 0 | CA (300 ppm) rating [8]: 0 | SAW (300 ppm) rating [9]: 0 | Rating Against C. elegans (150 ppm) [2]: 0 | SAW Eggs (300 ppm) rating [4]: 0 | SCR Eggs (1000 ppm) rating [5]: 0

CCCOC(=O)CSC(C[N+](=O)[O-])c1ccc(OC)cc1 (racemic) [Example 102]
WCR (50 ppm) rating [6]: 0 | M. incognita (150 ppm) score [1]: 9 | TSM (300 ppm) rating [7]: 0 | CA (300 ppm) rating [8]: 0 | SAW (300 ppm) rating [9]: 0 | Rating Against C. elegans (150 ppm) [2]: 9 | SAW Eggs (300 ppm) rating [4]: 0 | SCR Eggs (1000 ppm) rating [5]: 0

COc1ccc(C(C[N+](=O)[O-])SCC(=O)OCCCCCC(C)C)cc1 (centres unmarked) [Example 50]
WCR (50 ppm) rating [6]: 0 | M. incognita (150 ppm) score [1]: 0 | TSM (300 ppm) rating [7]: 0 | CA (300 ppm) rating [8]: 0 | SAW (300 ppm) rating [9]: 0 | Rating Against C. elegans (150 ppm) [2]: 7 | SAW Eggs (300 ppm) rating [4]: 9 (9 = 100% kill) | SCR Eggs (1000 ppm) rating [5]: 0

COc1cccc(C(C[N+](=O)[O-])SCC(=O)OCCCCCC(C)C)c1 (centres unmarked) [Example 58]
WCR (50 ppm) rating [6]: 0 | M. incognita (150 ppm) score [1]: 0 | TSM (300 ppm) rating [7]: 0 | CA (300 ppm) rating [8]: 0 | SAW (300 ppm) rating [9]: 0 | Rating Against C. elegans (150 ppm) [2]: 0 | SAW Eggs (300 ppm) rating [4]: 0 | SCR Eggs (1000 ppm) rating [5]: 0

CCCCOC(=O)CSC(C[N+](=O)[O-])c1ccc2c(c1)OCO2 (centres unmarked) [Example 20]
WCR (50 ppm) rating [6]: 0 | M. incognita (150 ppm) score [1]: 9 | TSM (300 ppm) rating [7]: 0 | CA (300 ppm) rating [8]: 0 | SAW (300 ppm) rating [9]: 0 | Rating Against C. elegans (150 ppm) [2]: 8 | SAW Eggs (300 ppm) rating [4]: 0 | SCR Eggs (1000 ppm) rating [5]: 0

CCCSC(C[N+](=O)[O-])c1cccc(OC)c1 (centres unmarked) [Example 61]
WCR (50 ppm) rating [6]: 0 | M. incognita (150 ppm) score [1]: 0 | TSM (300 ppm) rating [7]: 0 | CA (300 ppm) rating [8]: 5 (5 = 56-65% kill) | SAW (300 ppm) rating [9]: 0 | Rating Against C. elegans (150 ppm) [2]: 7 | SAW Eggs (300 ppm) rating [4]: 0 | SCR Eggs (1000 ppm) rating [5]: 0

CCCCOC(=O)CSC(C[N+](=O)[O-])c1ccc2ccccc2c1 (racemic) [Example 113]
WCR (50 ppm) rating [6]: 0 | M. incognita (150 ppm) score [1]: 0 | TSM (300 ppm) rating [7]: 0 | CA (300 ppm) rating [8]: 0 | SAW (300 ppm) rating [9]: 3 (3 = 36-45% kill) | Rating Against C. elegans (150 ppm) [2]: 9 | SAW Eggs (300 ppm) rating [4]: 9 (9 = 100% kill) | SCR Eggs (1000 ppm) rating [5]: 0

COc1ccc(C(C[N+](=O)[O-])SCc2ccccc2)cc1 (centres unmarked) [Example 52]
WCR (50 ppm) rating [6]: 4 (4 = 46-55% kill) | M. incognita (150 ppm) score [1]: 9 | TSM (300 ppm) rating [7]: 0 | CA (300 ppm) rating [8]: 0 | SAW (300 ppm) rating [9]: 0 | Rating Against C. elegans (150 ppm) [2]: 9 | SAW Eggs (300 ppm) rating [4]: 0 | SCR Eggs (1000 ppm) rating [5]: 0

COC(=O)CSC(C[N+](=O)[O-])c1c(Cl)cccc1Cl (centres unmarked) [Example 131]
WCR (50 ppm) rating [6]: 0 | M. incognita (150 ppm) score [1]: 9 | TSM (300 ppm) rating [7]: 0 | CA (300 ppm) rating [8]: 0 | SAW (300 ppm) rating [9]: 0 | Rating Against C. elegans (150 ppm) [2]: 7 | SAW Eggs (300 ppm) rating [4]: 0 | SCR Eggs (1000 ppm) rating [5]: 0
